Results on ten molecules are retold here after patent EP4722219A1 (Gan & Lee Pharmaceuticals Co., Ltd., priority 2023, dated 2024).

Common to all, as to format: cell-based
For assay [1], the target named is SMARCA4 (Homo sapiens, UniProt P51532). Description: SMARCA4 degradation in SW1573 cells (Western blot). On the set-up: endogenous in cells; host or cells: SW1573. The note with it: 24 hours; for Dmax at 0.001 µM / Dmax at 0.08 µM: read-out: Degradation rate of SMARCA4 in SW1573 cells (%). On the procedure: SW1573 cells were seeded at 2x10^5Cells/well in a 6-well plate. 2 mL of EMEM medium supplemented with 10% FBS was added to each well and was incubated overnight to allow cell attachment. […] The cells were returned to the incubator and incubated for another 24 hours.
After 24 hours, cells were harvested, the medium was aspirated, and the cells were rinsed once with 1 mL/well PBS. The PBS was aspirated, and 40 µL/well of RIPA lysis buffer containing protease inhibitors was added. After lysis and centrifugation, total protein extracts were obtained, and protein concentration in the extracts was determined by BCA assay. Protein electrophoresis was performed by SDS-PAGE, followed by constant voltage electrophoresis at 100 V for 60 minutes and the protein was then transferred to a PVDF membrane. The PVDF membrane was blocked in 5% skim milk powder for 1 hour at room temperature. […] After washing the membrane, secondary antibodies were added and incubated at room temperature for 1 hour (protected from the light). After washing, the membrane was exposed using an Odyssey luminometer. Grayscale analysis of bands was performed using Image Studio software.
(§1) The degradation rate (%) of SMARCA2/4 by the PROTAC compounds of the present invention in HeLa cells and SW1573 cells is shown in Table 10. Table 10 Degradation rate of SMARCA2/4 by PROTAC compounds of the present invention in HeLa cells and SW1573 cells (%)

Assay [2] addresses T1, SMARCA2 (Homo sapiens, UniProt P51531). Description: SMARCA2 degradation in SW1573 cells (Western blot). On the set-up: endogenous in cells; host or cells: SW1573. The settings on record: 24 hours. On the procedure:
(§2) Test Example 10 Degradation rate (%) of SMARCA2/4 by the PROTAC compounds of the present invention in HeLa cells and SW1573 cells
SW1573 cells were seeded at 2x10^5Cells/well in a 6-well plate. 2 mL of EMEM medium supplemented with 10% FBS was added to each well and was incubated overnight to allow cell attachment. The next day, 1 µL of 160 µM and 1 µL of 2 µM compound were added to the corresponding wells for treatment, resulting in final compound concentrations of 80 nM and 1 nM, respectively, and a final DMSO concentration of 0.05%. The cells were returned to the incubator and incubated for another 24 hours.
(§3) After 24 hours, cells were harvested, the medium was aspirated, and the cells were rinsed once with 1 mL/well PBS. The PBS was aspirated, and 40 µL/well of RIPA lysis buffer containing protease inhibitors was added. After lysis and centrifugation, total protein extracts were obtained, and protein concentration in the extracts was determined by BCA assay. Protein electrophoresis was performed by SDS-PAGE, followed by constant voltage electrophoresis at 100 V for 60 minutes and the protein was then transferred to a PVDF membrane. The PVDF membrane was blocked in 5% skim milk powder for 1 hour at room temperature. Primary antibodies (SMARCA2: CST#11966S, SMARCA4: CST#49360S, GAPDH: CST#5174S) were added and incubated overnight at 4°C. After washing the membrane, secondary antibodies were added and incubated at room temperature for 1 hour (protected from the light). After washing, the membrane was exposed using an Odyssey luminometer. Grayscale analysis of bands was performed using Image Studio software.
as §1

The target of assay [3] is T1, SMARCA2. Kind of assay: SMARCA2 degradation in HeLa cells (Western blot). On the set-up: endogenous in cells. The note with it: 4 hours. The protocol: as §2
HeLa cells were seeded at 1.2 x 10^5 cells/well in a 6-well plate. 2 mL of EMEM medium supplemented with 10% FBS was added to each well and the culture dish was incubated overnight to allow the cells to adhere. The next day, 1 µL of 160 µM and 1 µL of 2 µM compound were added to the corresponding wells, resulting in final compound concentrations of 80 nM and 1 nM, respectively, and a final DMSO concentration of 0.05%. The cells were returned to the incubator and incubated for another 4 hours.
as §3, with “After 4 hours, cells” for “After 24 hours, cells”, “harvested, the culture medium was” for “harvested, the medium was”
as §1

T1 sequence (P51531 whole entry): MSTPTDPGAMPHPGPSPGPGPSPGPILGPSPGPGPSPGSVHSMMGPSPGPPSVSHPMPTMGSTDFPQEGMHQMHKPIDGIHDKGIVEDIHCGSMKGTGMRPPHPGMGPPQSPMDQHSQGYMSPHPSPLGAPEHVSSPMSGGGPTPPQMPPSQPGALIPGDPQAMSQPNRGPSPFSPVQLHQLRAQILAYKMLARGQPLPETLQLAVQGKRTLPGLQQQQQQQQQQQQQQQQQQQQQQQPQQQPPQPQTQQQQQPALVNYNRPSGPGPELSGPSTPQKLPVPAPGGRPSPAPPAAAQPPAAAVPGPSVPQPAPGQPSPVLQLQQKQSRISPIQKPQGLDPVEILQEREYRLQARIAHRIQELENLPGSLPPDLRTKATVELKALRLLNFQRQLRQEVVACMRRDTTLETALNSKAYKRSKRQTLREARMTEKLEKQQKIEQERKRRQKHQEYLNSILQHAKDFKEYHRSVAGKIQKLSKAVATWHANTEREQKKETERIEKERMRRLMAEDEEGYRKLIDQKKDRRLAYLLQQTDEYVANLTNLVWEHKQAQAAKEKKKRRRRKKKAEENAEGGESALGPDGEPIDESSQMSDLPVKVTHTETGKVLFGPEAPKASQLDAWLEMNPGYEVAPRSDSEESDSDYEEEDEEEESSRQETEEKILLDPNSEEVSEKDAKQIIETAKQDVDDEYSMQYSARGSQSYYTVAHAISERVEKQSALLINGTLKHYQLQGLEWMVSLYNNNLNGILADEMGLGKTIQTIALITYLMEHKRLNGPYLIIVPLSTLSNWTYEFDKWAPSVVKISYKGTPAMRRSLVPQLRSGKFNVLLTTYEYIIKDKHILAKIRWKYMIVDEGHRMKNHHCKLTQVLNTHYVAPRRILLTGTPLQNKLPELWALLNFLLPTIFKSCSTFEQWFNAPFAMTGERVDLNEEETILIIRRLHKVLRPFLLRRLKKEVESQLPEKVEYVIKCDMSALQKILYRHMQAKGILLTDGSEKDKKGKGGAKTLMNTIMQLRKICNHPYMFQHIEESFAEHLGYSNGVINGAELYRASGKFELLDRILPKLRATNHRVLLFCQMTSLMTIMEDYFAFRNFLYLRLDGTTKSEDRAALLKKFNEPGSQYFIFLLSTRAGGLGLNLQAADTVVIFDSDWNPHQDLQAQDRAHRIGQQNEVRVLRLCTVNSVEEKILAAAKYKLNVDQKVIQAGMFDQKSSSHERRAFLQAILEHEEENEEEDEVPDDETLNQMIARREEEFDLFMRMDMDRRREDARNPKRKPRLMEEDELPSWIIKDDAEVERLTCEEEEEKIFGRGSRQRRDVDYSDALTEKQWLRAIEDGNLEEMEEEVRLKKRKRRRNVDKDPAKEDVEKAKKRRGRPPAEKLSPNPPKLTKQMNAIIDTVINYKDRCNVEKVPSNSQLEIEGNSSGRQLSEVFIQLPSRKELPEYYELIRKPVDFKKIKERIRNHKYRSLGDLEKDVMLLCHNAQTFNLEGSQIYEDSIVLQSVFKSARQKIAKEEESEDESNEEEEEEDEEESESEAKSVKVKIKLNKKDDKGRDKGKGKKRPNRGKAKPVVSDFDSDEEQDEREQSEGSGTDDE
Chain of SMARCA4 (P51532 whole entry): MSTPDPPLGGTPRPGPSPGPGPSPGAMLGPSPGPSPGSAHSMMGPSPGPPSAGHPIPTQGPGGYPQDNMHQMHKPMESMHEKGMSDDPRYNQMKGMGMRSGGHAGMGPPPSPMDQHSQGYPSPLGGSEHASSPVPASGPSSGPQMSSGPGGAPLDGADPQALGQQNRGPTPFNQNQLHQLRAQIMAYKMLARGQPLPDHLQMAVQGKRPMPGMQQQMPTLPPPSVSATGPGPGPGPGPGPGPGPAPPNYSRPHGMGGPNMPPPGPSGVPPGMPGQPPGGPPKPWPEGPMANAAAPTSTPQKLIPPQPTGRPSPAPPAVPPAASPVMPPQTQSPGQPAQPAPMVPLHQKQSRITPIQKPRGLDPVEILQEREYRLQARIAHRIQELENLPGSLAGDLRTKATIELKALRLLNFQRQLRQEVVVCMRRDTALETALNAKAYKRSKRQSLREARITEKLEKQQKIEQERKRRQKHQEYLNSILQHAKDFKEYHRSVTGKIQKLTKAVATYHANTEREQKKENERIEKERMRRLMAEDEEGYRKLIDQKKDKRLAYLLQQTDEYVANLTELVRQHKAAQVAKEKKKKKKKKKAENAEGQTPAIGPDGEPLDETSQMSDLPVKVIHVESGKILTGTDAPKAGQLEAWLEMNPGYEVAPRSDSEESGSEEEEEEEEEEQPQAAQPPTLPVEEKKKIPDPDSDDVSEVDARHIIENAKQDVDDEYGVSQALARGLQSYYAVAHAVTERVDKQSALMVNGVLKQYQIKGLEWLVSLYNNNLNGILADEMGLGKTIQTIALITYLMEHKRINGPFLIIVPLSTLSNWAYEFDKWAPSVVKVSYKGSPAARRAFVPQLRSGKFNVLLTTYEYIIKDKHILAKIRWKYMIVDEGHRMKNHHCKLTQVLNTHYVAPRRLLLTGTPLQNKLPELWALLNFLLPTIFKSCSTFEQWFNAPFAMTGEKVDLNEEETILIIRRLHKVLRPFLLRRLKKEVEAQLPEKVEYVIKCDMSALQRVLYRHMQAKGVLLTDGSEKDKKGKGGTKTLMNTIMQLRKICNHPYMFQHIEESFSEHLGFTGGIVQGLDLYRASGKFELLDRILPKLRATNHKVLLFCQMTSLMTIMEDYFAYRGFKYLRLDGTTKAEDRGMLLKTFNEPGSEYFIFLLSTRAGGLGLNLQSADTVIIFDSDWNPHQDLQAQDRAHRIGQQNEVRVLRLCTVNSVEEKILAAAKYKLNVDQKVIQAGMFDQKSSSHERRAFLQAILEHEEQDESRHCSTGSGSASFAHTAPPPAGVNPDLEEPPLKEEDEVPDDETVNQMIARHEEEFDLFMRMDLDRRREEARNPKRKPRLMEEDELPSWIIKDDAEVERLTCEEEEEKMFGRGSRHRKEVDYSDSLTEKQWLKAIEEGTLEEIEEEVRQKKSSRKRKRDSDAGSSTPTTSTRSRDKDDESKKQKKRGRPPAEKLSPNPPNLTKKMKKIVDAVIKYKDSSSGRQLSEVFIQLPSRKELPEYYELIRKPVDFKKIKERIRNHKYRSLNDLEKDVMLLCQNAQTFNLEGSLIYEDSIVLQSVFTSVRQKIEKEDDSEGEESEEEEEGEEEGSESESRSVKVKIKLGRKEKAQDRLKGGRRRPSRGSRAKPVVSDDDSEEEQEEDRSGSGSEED

As to `Nc1nnc(-c2ccccc2O)cc1C#CC1CCC2(CC1)CC(N1CCN3c4cc(F)c(C(=O)N[C@H]5CCC(=O)NC5=O)cc4OC[C@H]3C1)C2` (stereo partly drawn) [SM-P-6, (R)-3-(7-((3-amino-6-(2-hydroxyphenyl)pyridazin-4-yl)ethynyl)spiro[3.5]nonan-2-yl)-n-((S)-2,6-dioxopiperidin-3-yl)-9-fluoro-1,2,3,4,4a,5-hexahydrobenzo[b]pyrazi no[1,2-d][1,4]oxazine-8-carboxamide], the “Degradation rate of SMARCA4 in SW1573 cells (%)” value in assay [1] (1 nM) is -30%; in assay [1] (80 nM), -41%. The “Degradation rate of SMARCA2 in SW1573 cells (%)” value in assay [2] (1 nM) turned out to be 20%; in assay [2] (80 nM), 34%.

Turning to `Nc1nnc(-c2ccccc2O)cc1C#CC1CCC2(CC1)CC(N1CCN3c4cc(NC5CCC(=O)NC5=O)ccc4OCC[C@H]3C1)C2` (stereo partly shown) [SM-P-17], in assay [1] (1 nM), the Dmax at 0.001 µM is -18%. In assay [1] (80 nM), the Dmax at 0.08 µM was found to be 12%. The figures for the “Degradation rate of SMARCA2 in SW1573 cells (%)” value in assay [2] (1 nM) and in assay [2] (80 nM) were 12% and 72%, respectively.

For the molecule `CN(C(=O)c1ccc2c(c1)OC[C@H]1CN(C3CC4(CCC(C#Cc5cc(-c6ccccc6O)nnc5N)CC4)C3)CCN21)[C@H]1CCC(=O)NC1=O` (stereo partly shown) [SM-P-18], the Dmax at 0.001 µM in assay [1] (1 nM) is -32%. Further, the Dmax at 0.08 µM in assay [1] (80 nM) is -34%. For the same molecule, the “Degradation rate of SMARCA2 in SW1573 cells (%)” value was 16% in assay [2] (1 nM) and 25% in assay [2] (80 nM).

For the molecule `Nc1nnc(-c2ccccc2O)cc1C#CC1CCC2(CC1)CC(N1CCN3c4ccc(C(=O)N[C@H]5CCC(=O)NC5=O)c(F)c4OC[C@H]3C1)C2` (stereo partly shown) [SM-P-22], the Dmax at 0.001 µM in assay [1] (1 nM) amounted to 14%. Besides, in assay [1] (80 nM), the Dmax at 0.08 µM stood at 4%. The entries for the “Degradation rate of SMARCA2 in SW1573 cells (%)” value in assay [2] (1 nM) and in assay [2] (80 nM) were -9% and 28%, respectively.

Consider `Nc1nnc(-c2ccccc2O)cc1C#CC1CCC2(CC1)CC(N1CCC3(CC1)COc1cc(NC4CCC(=O)NC4=O)ccc1C3)C2` (stereo not shown) [SM-P-23, 3-((1'-(7-((3-amino-6-(2-hydroxyphenyl)pyridazin-4-yl)ethynyl)spiro[3.5]nonan-2-yl)spiro[chromane-3,4'-piperidin]-7-yl)amino)piperidine-2,6-dione], for which the Dmax at 0.001 µM in assay [1] (1 nM) is -14%. Further, in assay [1] (80 nM), the Dmax at 0.08 µM is 93%. Moreover, the results for the “Degradation rate of SMARCA2 in SW1573 cells (%)” value in assay [2] (1 nM) and in assay [2] (80 nM) were 38% and 95%, respectively.

`Cn1c(=O)n(C2CCC(=O)NC2=O)c2cc3c(cc21)C1(CCN(C[C@H]2CC[C@H](Cn4cc(-c5cc(-c6ccccc6O)nnc5N)cn4)CC2)CC1)CO3` (stereo partly shown) [SM-P-30, 3-(1'-(((1r,4r)-4-((4-(3-amino-6-(2-hydroxyphenyl)pyridazin-4-yl)-1H-pyrazol-1-yl)methyl)cyclohexyl)methyl)-1-methyl-2-oxo-1,2-dihydro-3H,6H-spiro[benzofuro[5,6-d]imidazole-7,4'-piperidin]-3-yl)piperidine-2,6-dione]: the “Degradation rate of SMARCA2 in SW1573 cells (%)” value in assay [2] (1 nM) was found to be 99%; in assay [2] (80 nM), 97%. In addition, the figures for the “Degradation rate of SMARCA2 in HeLa cells (%)” value in assay [3] (1 nM) and in assay [3] (80 nM) were 99% and 90%, respectively.

As to `Cn1c(=O)n(C2CCC(=O)NC2=O)c2ccc3c(c21)OCC31CCN(C[C@H]2CC[C@H](n3cc(-c4cc(-c5ccccc5O)nnc4N)cn3)CC2)CC1` (stereo partly shown) [SM-P-35], the “Degradation rate of SMARCA2 in SW1573 cells (%)” value in assay [2] (1 nM) and in assay [2] (80 nM) was 100% in each case. Further, the “Degradation rate of SMARCA2 in HeLa cells (%)” value in assay [3] (1 nM) is listed as 100%; in assay [3] (80 nM), 99%.

For the molecule `Cn1c(=O)n(C2CCC(=O)NC2=O)c2cc3c(cc21)C1(CCN(C[C@H]2CC[C@H](n4cc(-c5cc(-c6ccccc6O)nnc5N)cn4)CC2)CC1)CO3` (stereo partly shown) [SM-P-36], the “Degradation rate of SMARCA2 in SW1573 cells (%)” value in assay [2] (1 nM) was determined as 100%; in assay [2] (80 nM) it was 98%. Also, the “Degradation rate of SMARCA2 in HeLa cells (%)” value is reported as 99% in assay [3] (1 nM) and 97% in assay [3] (80 nM).

For the molecule `Cn1c(=O)n(C2CCC(=O)NC2=O)c2cc3c(cc21)C1(CCN(C2CN(c4cc(-c5ccccc5O)nnc4N)C2)CC1)CO3` (stereo not shown) [SM-P-38, 3-(1'-(1-(3-amino-6-(2-hydroxyphenyl)pyridazin-4-yl)azetidin-3-yl)-1-methyl-2-oxo-1,2-dihydro-3H,6H-spiro[benzofuro[5,6-d]imidazole-7,4'-piperidin]-3-yl)piperidine-2,6-dione], the “Degradation rate of SMARCA2 in SW1573 cells (%)” value in assay [2] (1 nM) stood at 24%; in assay [2] (80 nM), 29%. Further, the “Degradation rate of SMARCA2 in HeLa cells (%)” value in assay [3] (1 nM) was -6%; in assay [3] (80 nM) it was 10%.

For the molecule `Cc1ncsc1-c1ccc([C@H](C)NC(=O)[C@@H]2C[C@@H](O)CN2C(=O)[C@@H](NC(=O)[C@H]2CC[C@H](CN3CC4(CCC(n5cc(-c6cc(-c7ccccc7O)nnc6N)cn5)CC4)C3)CC2)C(C)(C)C)cc1` [SMD-3040, (2S,4R)-1-((S)-2-((1R,4S)-4-((7-(4-(3-amino-6-(2-hydroxyphenyl)pyridazin-4-yl)-1H-pyrazol-1-yl)-2-azaspiro[3.5]nonan-2-yl)methyl)cyclohexane-1-carboxamido)-3,3-dimethylbutanoyl)-4-hydroxy-N-((S)-1-(4-(4-methylthiazol-5-yl)phenyl)ethyl)pyrrolidine-2-carboxamide, reference compound], the “Degradation rate of SMARCA4 in SW1573 cells (%)” value is listed as 21% in assay [1] (1 nM) and 86% in assay [1] (80 nM). Further, the “Degradation rate of SMARCA2 in SW1573 cells (%)” value in assay [2] (1 nM) was determined as 89%; in assay [2] (80 nM) it was 99%.
